{"source": "patent US20140017187A1", "about": "“Use of 5-(7-methoxy-3,3-dimethyl-2,3-dihydro-1-benzoxepin-5-yl)-3-methyl-penta-2,4-dienoic acid as a cosmetic” (Merck Patent GmbH, priority 2008, published 2014)", "key": {"human skin model": {"system": "human skin model", "test": "cDNA microarray gene expression profiling (Affymetrix) of treated skin equivalents, GeneGO MetaCore analysis", "type": "cell-based", "procedure": "One of the advantages of cDNA microarray is the possibility to observe the expression pattern of the whole genes and compare with different conditions. This is the first study to determine the gene expression profiles of Compound-treated human skin. For the analysis of deregulated gene expression induced by substance Compound, treated and control samples from a human skin model were analyzed with Affymetrix oligonucleotide microarrays. Skin has been among the first organs analysed using DNA-Microarrays. In addition, epidermal keratinocytes have been the target of many studies because they respond to a rich variety of inflammatory and immunmodulating cytokines, hormones, vitamins, ultraviolet (UV) light, toxins and physical injury. Altered gene expression after applying substance Compound was analysed with an Affymetrix system.\nFor gene expression studies skin equivalents were treated with 50 μL of 2 relevant substance Compound with a concentration of c=50 μM in PBS-buffer/DMSO. Buffer-treated skin equivalents served as controls.\nA ratio (log 2) value of zero indicates no regulation, whereas positive (log 2) values indicate an upregulation and negative (log 2) values a downregulation of the relevant gene.\nThe experiment contains 759 genes with the specified threshold (Appendix A)\nGeneGO's Metacore (Pathways and Maps) Software.\nEnrichment analysis consists of matching gene IDs for the common, similar and unique sets of the uploaded files with gene IDs in functional ontologies in MetaCore. The ontologies include canonical pathway maps, GeneGo cellular processes, GO cellular processes and diseases categories. The degree of “relevance” to different categories for the uploaded datasets is defined by p-values, so that the lower p-value gets higher priority."}, "[1]": {"system": "subjects of skin type 3 or 4", "test": "Double blind clinical trial of skin whitening activity on forearms, versus placebo formulation", "type": "in vivo, human", "conditions": "oil-in-water emulsion with 1.0% Compound vs placebo, forearm, twice a day, 4½ weeks", "procedure": "Skin whitening activity was evaluated in a double blind clinical trial. As study medication a oil-in-water emulsion formulation containing 1.0% of the Compound, in comparison with the same formulation containing no active ingredient (placebo) was used.\nThe study was executed with subjects of skin type 3 or 4, aged from 18 to 50 years, whereby the active formulation was applied on one forearm twice a day and the placebo formulation on the other forearm for 4½ weeks. Assessment of whitening efficacy was performed on both forearms at day 0, 14 and 28 by visual assessment (examination of pigmentation differences), colorimetric measurements (using Chroma-Meter CR 300, Minolta resulting in L* values, expressing the changes in brightness, and ITA° values Individual Typology Angle expressing the melanin index) as well as digital photographs."}, "[2]": {"system": "epidermal differentiation proteins", "test": "In vitro expression of epidermal differentiation proteins", "type": "cell-based", "conditions": "own unpublished results"}, "[3]": {"test": "Skin/eye irritation test (in house data)"}, "[4]": {"test": "Phototoxic and photo-allergenic potential (in house data)"}, "[5]": {"test": "Skin sensitization test (in house data)"}, "animal models": {"system": "animal models", "test": "Toxicity studies in animal models (in house data)", "conditions": "in vivo"}}}
{"compound": "COc1ccc2c(c1)C(/C=C/C(C)=C/C(=O)O)=CC(C)(C)CO2", "note": "[Compound, 5-(7-methoxy-3,3-dimethyl-2,3-dihydro-1-benzoxepin-5-yl)-3-methyl-penta-2,4-dienoic acid]", "values": [{"measurement": "Compound vs. Control, ratio Log(2) value", "setting": "human skin model; gene EMP1 (EMP1_HUMAN, Epithelial membrane protein 1)", "value": "1.278 Log(2)"}, {"measurement": "Compound vs. Control, ratio Log(2) value", "setting": "human skin model; gene EMR2 (EMR2_HUMAN, EGF-like module-containing mucin-like hormone receptor-like 2 precursor)", "value": "1.286 Log(2)"}, {"measurement": "Compound vs. Control, ratio Log(2) value", "setting": "human skin model; gene FABP4 (FABPA_HUMAN, Fatty acid-binding protein, adipocyte)", "value": "2.125 Log(2)"}, {"measurement": "Compound vs. Control, ratio Log(2) value", "setting": "human skin model; gene FGF11 (FGF11_HUMAN, Fibroblast growth factor 11)", "value": "0.9322 Log(2)"}, {"measurement": "Compound vs. Control, ratio Log(2) value", "setting": "human skin model; gene FLNB (FLNB_HUMAN, Filamin-B)", "value": "0.6681 Log(2)"}, {"measurement": "Compound vs. Control, ratio Log(2) value", "setting": "human skin model; gene FN1 (FINC_HUMAN, Fibronectin precursor)", "value": "1.364 Log(2)"}, {"measurement": "Compound vs. Control, ratio Log(2) value", "setting": "human skin model; gene GPC4 (GPC4_HUMAN, Glypican-4 precursor)", "value": "0.7558 Log(2)"}, {"measurement": "Compound vs. Control, ratio Log(2) value", "setting": "human skin model; gene GPC6 (GPC6_HUMAN, Glypican-6 precursor)", "value": "0.6711 Log(2)"}, {"measurement": "Compound vs. Control, ratio Log(2) value", "setting": "human skin model; gene GPX7 (GPX7_HUMAN, Glutathione peroxidase 7 precursor)", "value": "0.8162 Log(2)"}, {"measurement": "Compound vs. Control, ratio Log(2) value", "setting": "human skin model; gene HAS2 (HAS2_HUMAN, Hyaluronan synthase 2)", "value": "0.8154 Log(2)"}, {"measurement": "Compound vs. Control, ratio Log(2) value", "setting": "human skin model; gene ICAM1 (ICAM1_HUMAN, Intercellular adhesion molecule 1 precursor)", "value": "−1.612 Log(2)"}, {"measurement": "Compound vs. Control, ratio Log(2) value", "setting": "human skin model; gene IL6 (IL6_HUMAN, Interleukin-6 precursor)", "value": "−1.09 Log(2)"}, {"measurement": "Compound vs. Control, ratio Log(2) value", "setting": "human skin model; gene IL6ST (IL6RB_HUMAN, Interleukin-6 receptor subunit beta precursor)", "value": "−1.628 Log(2)"}, {"measurement": "Compound vs. Control, ratio Log(2) value", "setting": "human skin model; gene IL8 (IL8_HUMAN, Interleukin-8 precursor)", "value": "−0.6883 Log(2)"}, {"measurement": "Compound vs. Control, ratio Log(2) value", "setting": "human skin model; gene INSIG2 (INSI2_HUMAN, Insulin-induced gene 2 protein)", "value": "0.6645 Log(2)"}, {"measurement": "Compound vs. Control, ratio Log(2) value", "setting": "human skin model; gene ITGB5 (ITB5_HUMAN, Integrin beta-5 precursor)", "value": "0.7305 Log(2)"}, {"measurement": "Compound vs. Control, ratio Log(2) value", "setting": "human skin model; gene ITIH5 (ITIH5_80760, inter-alpha (globulin) inhibitor H5)", "value": "1.192 Log(2)"}, {"measurement": "Compound vs. Control, ratio Log(2) value", "setting": "human skin model; gene LAMA3 (LAMA3_HUMAN, Laminin subunit alpha-3 precursor)", "value": "0.6648 Log(2)"}, {"measurement": "Compound vs. Control, ratio Log(2) value", "setting": "human skin model; gene LAMB3 (LAMB3_HUMAN, Laminin subunit beta-3 precursor)", "value": "1.168 Log(2)"}, {"measurement": "Compound vs. Control, ratio Log(2) value", "setting": "human skin model; gene LAMC1 (LAMC1_HUMAN, Laminin subunit gamma-1 precursor)", "value": "0.7744 Log(2)"}, {"measurement": "Compound vs. Control, ratio Log(2) value", "setting": "human skin model; gene LEP (LEP_HUMAN, Leptin precursor)", "value": "3.891 Log(2)"}, {"measurement": "Compound vs. Control, ratio Log(2) value", "setting": "human skin model; gene LEPR (LEPR_HUMAN, Leptin receptor precursor)", "value": "0.7216 Log(2)"}, {"measurement": "Compound vs. Control, ratio Log(2) value", "setting": "human skin model; gene MMP9 (MMP9_HUMAN, Matrix metalloproteinase-9 precursor)", "value": "−0.8347 Log(2)"}, {"measurement": "Compound vs. Control, ratio Log(2) value", "setting": "human skin model; gene MMP11 (MMP11_HUMAN, Stromelysin-3 precursor)", "value": "−1.085 Log(2)"}, {"measurement": "Compound vs. Control, ratio Log(2) value", "setting": "human skin model; gene MMP14 (MMP14_HUMAN, Matrix metalloproteinase-14 precursor)", "value": "−0.6909 Log(2)"}, {"measurement": "Compound vs. Control, ratio Log(2) value", "setting": "human skin model; gene PLOD2 (PLOD2_HUMAN, Procollagen-lysine,2-oxoglutarate 5-dioxygenase 2 precursor)", "value": "1.455 Log(2)"}, {"measurement": "Compound vs. Control, ratio Log(2) value", "setting": "human skin model; gene RXRA (RXRA_HUMAN, Retinoic acid receptor RXR-alpha)", "value": "0.7793 Log(2)"}, {"measurement": "Compound vs. Control, ratio Log(2) value", "setting": "human skin model; gene S100A7 (S10A7_HUMAN, Protein S100-A7)", "value": "−0.6784 Log(2)"}, {"measurement": "Compound vs. Control, ratio Log(2) value", "setting": "human skin model; gene S100A7A (S1A7A_HUMAN, Protein S100-A7A)", "value": "−2.659 Log(2)"}, {"measurement": "Compound vs. Control, ratio Log(2) value", "setting": "human skin model; gene S100A12 (S10AC_HUMAN, Protein S100-A12)", "value": "−0.7202 Log(2)"}, {"measurement": "Compound vs. Control, ratio Log(2) value", "setting": "human skin model; gene SCARB1 (SCRB1_HUMAN, Scavenger receptor class B member 1)", "value": "0.8349 Log(2)"}, {"measurement": "Compound vs. Control, ratio Log(2) value", "setting": "human skin model; gene TGFA (TGFA_HUMAN, Protransforming growth factor alpha precursor)", "value": "0.8031 Log(2)"}, {"measurement": "Compound vs. Control, ratio Log(2) value", "setting": "human skin model; gene UGCG (CEGT_HUMAN, Ceramide glucosyltransferase)", "value": "0.7977 Log(2)"}, {"measurement": "Compound vs. Control, ratio Log(2) value", "setting": "human skin model; gene VLDLR (VLDLR_HUMAN, Very low-density lipoprotein receptor precursor)", "value": "0.9666 Log(2)"}, {"measurement": "effect on GPC6 and S100A7 genes compared with old skin", "setting": "human skin model; old skin (literature): S100A7 upregulated, GPC6 downregulated", "value": "opposite effect"}, {"measurement": "skin whitening activity", "setting": "[1]", "value": "extraordinary skin whitening activity"}, {"measurement": "expression of epidermal differentiation proteins", "setting": "[2]", "value": "increased expression"}, {"measurement": "skin/eye irritation", "setting": "[3]", "value": "no skin/eye irritation"}, {"measurement": "phototoxicity", "setting": "[4]", "value": "no phototoxic"}, {"measurement": "skin sensitization", "setting": "[5]", "value": "no skin sensitization"}, {"measurement": "cell proliferation or apoptosis", "setting": "animal models", "value": "no indication"}]}
